Measured values taken from patent US8232407B2, “Nitrogenous heterocyclic compounds with insecticidal activity, and the preparation and use thereof” (East China University of Science and Technology, priority 2008, dated 2012).

What was measured:
[1] = test system: Aphis craccivoral; experiment: Insecticidal activities to aphids, immersion method; type: in vivo; conditions: in vivo
Description: (1): Insecticidal Activities to Aphids
Aphis (Aphis craccivoral), which belongs to Homoptera and has a piercing-sucking mouthpart, is a common insect for agricultural plant. Aphis craccivoral was tested by immersion method.
Procedure: exactly weighed various samples were independently added to N,N-dimethylformamide to form 10 g/L stock solutions. The stock solutions were diluted with 0.2 mL/L aqueous Triton X-100 solution to a concentration of 500 ppm. After stably sucking on bean sprout, the wingless adult aphis together with bean sprout were dipped into 500 ppm dilution, taken out after 5 seconds, and the excess dilution was sucked off with bibulous paper. The treated wingless adult aphis was incubated in clean vessel at a constant temperature of 23° C. Each concentration was repeated for 3 times and the control group was treated with 0.2mL/L aqueous Triton X-100 solution. The number of killed aphis was counted after 24 hours and the mortality was to calculated according to the following formula:
(§1) Mortality (%)=(the number of the survival aphis in control group−the number of the survival aphis in the treatment group)/the number of the survival aphis in control group×100%

[2] = test system: Nilaparvata lugens; experiment: Insecticidal activities to plant hopper, spraying method; type: in vivo; conditions: in vivo
Description: as §1
(2): Insecticidal Activities to Plant hopper
Plant hopper (Nilaparvata lugens), which belongs to Homoptera and has a piercing-sucking mouthpart, is a common insect for agricultural plant. Nilaparvata lugens was tested by spraying method.
Procedure: the test compound was exactly formulated with acetone to form solutions having concentrations of 500, 250, 100, 50, 25, 12.5, 6.25, 3.13, 1.57 and 0.79 ppm, respectively. Aqueous acetone solution was used as control. Each treatment was repeated for 3 tumblers (3 times). Two ml of solution was sprayed uniformly to each tumbler with a mini manual sprayer. 10 insects were introduced to every basin 6 hours before spraying. Three series of experiments were conducted. The number of killed insects was counted after 24 hours to calculate the mortality according to the above mentioned formula.

CN=C(C(=Cc1ccc(Cl)o1)[N+](=O)[O-])N(C)Cc1ccc(Cl)nc1 [Compound 164]
Aphis craccivoral Mortality (%) 500 ppm [1]: 100% | Nilaparvata lugens Mortality (%) 500 ppm [2]: 100%

CN=C(C(=C(C)c1ccc([N+](=O)[O-])s1)[N+](=O)[O-])N(C)C(C)c1ccc(Cl)nc1 (stereo not shown) [Compound 214]
Aphis craccivoral Mortality (%) 500 ppm [1]: 98% | Nilaparvata lugens Mortality (%) 500 ppm [2]: 100%

CCN(Cc1ccc(Cl)nc1)C(=NC)C(=Cc1ccsc1)[N+](=O)[O-] [Compound 185]
Aphis craccivoral Mortality (%) 500 ppm [1]: 100% | Nilaparvata lugens Mortality (%) 500 ppm [2]: 100%

CCN(Cc1ccc(Cl)nc1)C(=NC)C(=C(C)c1cccs1)[N+](=O)[O-] [Compound 200]
Aphis craccivoral Mortality (%) 500 ppm [1]: 100% | Nilaparvata lugens Mortality (%) 500 ppm [2]: 100%

CN=C(C(=Cc1ccc[nH]1)[N+](=O)[O-])N(C)Cc1ccc(Cl)nc1 [Compound 240]
Aphis craccivoral Mortality (%) 500 ppm [1]: 77% | Nilaparvata lugens Mortality (%) 500 ppm [2]: 68%

CN=C(C(=Cc1ccc(Cl)s1)[N+](=O)[O-])N(C)Cc1cnc(Cl)s1 [Compound 223]
Aphis craccivoral Mortality (%) 500 ppm [1]: 65% | Nilaparvata lugens Mortality (%) 500 ppm [2]: 53%

CCN(Cc1ccc(Cl)nc1)C(=NC)C(=Cc1cccs1)[N+](=O)[O-] [Compound 184]
Aphis craccivoral Mortality (%) 500 ppm [1]: 98% | Nilaparvata lugens Mortality (%) 500 ppm [2]: 100%

CCN=C(C(=Cc1ccc[nH]1)[N+](=O)[O-])N(C)Cc1ccc(Cl)nc1 [Compound 178]
Aphis craccivoral Mortality (%) 500 ppm [1]: 100% | Nilaparvata lugens Mortality (%) 500 ppm [2]: 100%

CCN(Cc1ccc(Cl)nc1)C(=NC)C(=Cc1ccoc1)[N+](=O)[O-] [Compound 180]
Aphis craccivoral Mortality (%) 500 ppm [1]: 100% | Nilaparvata lugens Mortality (%) 500 ppm [2]: 100%

CCN(Cc1cnc(Cl)s1)C(=NC)C(=Cc1ccc([N+](=O)[O-])o1)[N+](=O)[O-] [Compound 227]
Aphis craccivoral Mortality (%) 500 ppm [1]: 100% | Nilaparvata lugens Mortality (%) 500 ppm [2]: 100%

CCN(Cc1ccc(Cl)nc1)C(=NC)C(=C(C)c1ccc(Cl)o1)[N+](=O)[O-] [Compound 198]
Aphis craccivoral Mortality (%) 500 ppm [1]: 86% | Nilaparvata lugens Mortality (%) 500 ppm [2]: 100%

CCN=C(C(=Cc1ccc([N+](=O)[O-])s1)[N+](=O)[O-])N(C)Cc1ccc(Cl)nc1 [Compound 176]
Aphis craccivoral Mortality (%) 500 ppm [1]: 86% | Nilaparvata lugens Mortality (%) 500 ppm [2]: 100%

CCN(Cc1ccc(Cl)nc1)C(=NC)C(=C(C)c1ccsc1)[N+](=O)[O-] [Compound 201]
Aphis craccivoral Mortality (%) 500 ppm [1]: 100% | Nilaparvata lugens Mortality (%) 500 ppm [2]: 100%

CN=C(NCc1ccc(Cl)nc1)C(=Cc1ccc(Cl)o1)[N+](=O)[O-] [Compound 154]
Aphis craccivoral Mortality (%) 500 ppm [1]: 52% | Nilaparvata lugens Mortality (%) 500 ppm [2]: 65%

CCN(Cc1ccc(Cl)nc1)C(=NC)C(=Cc1ccc([N+](=O)[O-])o1)[N+](=O)[O-] [Compound 181]
Aphis craccivoral Mortality (%) 500 ppm [1]: 100% | Nilaparvata lugens Mortality (%) 500 ppm [2]: 100%

CN=C(C(=Cc1cccs1)[N+](=O)[O-])N(C)Cc1cnc(Cl)s1 [Compound 220]
Aphis craccivoral Mortality (%) 500 ppm [1]: 80% | Nilaparvata lugens Mortality (%) 500 ppm [2]: 67%

CN=C(C(=Cc1ccc[nH]1)[N+](=O)[O-])N(C)Cc1ccc(Cl)nc1 [Compound 170]
Aphis craccivoral Mortality (%) 500 ppm [1]: 89% | Nilaparvata lugens Mortality (%) 500 ppm [2]: 34%

CN=C(C(=Cc1ccsc1)[N+](=O)[O-])N(C)Cc1cnc(Cl)s1 [Compound 221]
Aphis craccivoral Mortality (%) 500 ppm [1]: 78% | Nilaparvata lugens Mortality (%) 500 ppm [2]: 87%

CCN=C(C(=Cc1ccoc1)[N+](=O)[O-])N(C)Cc1ccc(Cl)nc1 [Compound 171]
Aphis craccivoral Mortality (%) 500 ppm [1]: 93% | Nilaparvata lugens Mortality (%) 500 ppm [2]: 100%

CCN(Cc1ccc(Cl)nc1)C(=NC)C(=Cc1ccc(Cl)s1)[N+](=O)[O-] [Compound 187]
Aphis craccivoral Mortality (%) 500 ppm [1]: 100% | Nilaparvata lugens Mortality (%) 500 ppm [2]: 100%

CCN(Cc1ccc(Cl)nc1)C(=NC)C(=Cc1ccc(Cl)o1)[N+](=O)[O-] [Compound 182]
Aphis craccivoral Mortality (%) 500 ppm [1]: 100% | Nilaparvata lugens Mortality (%) 500 ppm [2]: 100%

CCN(Cc1ccc(Cl)nc1)C(=NC)C(=C(C)c1ccoc1)[N+](=O)[O-] [Compound 196]
Aphis craccivoral Mortality (%) 500 ppm [1]: 100% | Nilaparvata lugens Mortality (%) 500 ppm [2]: 100%

CCN(C(=NC)C(=Cc1ccc(Br)o1)[N+](=O)[O-])C(C)c1ccc(Cl)nc1 (stereo not shown) [Compound 209]
Aphis craccivoral Mortality (%) 500 ppm [1]: 88% | Nilaparvata lugens Mortality (%) 500 ppm [2]: 100%

CN=C(C(=Cc1ccc(Cl)s1)[N+](=O)[O-])N(C)Cc1ccc(Cl)nc1 [Compound 239]
Aphis craccivoral Mortality (%) 500 ppm [1]: 58% | Nilaparvata lugens Mortality (%) 500 ppm [2]: 34%

CCN=C(C(=Cc1ccc([N+](=O)[O-])o1)[N+](=O)[O-])N(C)Cc1ccc(Cl)nc1 [Compound 172]
Aphis craccivoral Mortality (%) 500 ppm [1]: 96% | Nilaparvata lugens Mortality (%) 500 ppm [2]: 100%

CN=C(NCc1ccc(Cl)nc1)C(=Cc1ccsc1)[N+](=O)[O-] [Compound 157]
Aphis craccivoral Mortality (%) 500 ppm [1]: 100% | Nilaparvata lugens Mortality (%) 500 ppm [2]: 97%

CCN=C(C(=Cc1ccco1)[N+](=O)[O-])N(CC)Cc1ccc(Cl)nc1 [Compound 189]
Aphis craccivoral Mortality (%) 500 ppm [1]: 86% | Nilaparvata lugens Mortality (%) 500 ppm [2]: 100%

CCN(Cc1ccc(Cl)nc1)C(=NC)C(=Cc1ccoc1)[N+](=O)[O-] [Compound 242]
Aphis craccivoral Mortality (%) 500 ppm [1]: 100% | Nilaparvata lugens Mortality (%) 500 ppm [2]: 100%

CCN(Cc1cnc(Cl)s1)C(=NC)C(=Cc1ccco1)[N+](=O)[O-] [Compound 225]
Aphis craccivoral Mortality (%) 500 ppm [1]: 90% | Nilaparvata lugens Mortality (%) 500 ppm [2]: 78%

CCN(Cc1ccc(Cl)nc1)C(=NC)C(=C(C)c1ccc(Br)o1)[N+](=O)[O-] [Compound 199]
Aphis craccivoral Mortality (%) 500 ppm [1]: 84% | Nilaparvata lugens Mortality (%) 500 ppm [2]: 100%

CN=C(C(=Cc1ccc([N+](=O)[O-])s1)[N+](=O)[O-])N(C)Cc1cnc(Cl)s1 [Compound 222]
Aphis craccivoral Mortality (%) 500 ppm [1]: 46% | Nilaparvata lugens Mortality (%) 500 ppm [2]: 67%

CN=C(C(=C(C)c1ccc[nH]1)[N+](=O)[O-])N(C)Cc1ccc(Cl)nc1 [Compound 194]
Aphis craccivoral Mortality (%) 500 ppm [1]: 98% | Nilaparvata lugens Mortality (%) 500 ppm [2]: 100%

CCN(C(=NC)C(=Cc1ccco1)[N+](=O)[O-])C(C)c1ccc(Cl)nc1 (stereo not shown) [Compound 205]
Aphis craccivoral Mortality (%) 500 ppm [1]: 56% | Nilaparvata lugens Mortality (%) 500 ppm [2]: 87%

CCN=C(C(=Cc1ccc(Cl)o1)[N+](=O)[O-])N(CC)Cc1ccc(Cl)nc1 [Compound 192]
Aphis craccivoral Mortality (%) 500 ppm [1]: 97% | Nilaparvata lugens Mortality (%) 500 ppm [2]: 100%

CCN(Cc1cnc(Cl)s1)C(=NC)C(=Cc1ccc(Cl)s1)[N+](=O)[O-] [Compound 230]
Aphis craccivoral Mortality (%) 500 ppm [1]: 75% | Nilaparvata lugens Mortality (%) 500 ppm [2]: 50%

CN=C(C(=Cc1ccsc1)[N+](=O)[O-])N(C)Cc1ccc(Cl)nc1 [Compound 237]
Aphis craccivoral Mortality (%) 500 ppm [1]: 87% | Nilaparvata lugens Mortality (%) 500 ppm [2]: 98%

CCN(Cc1ccc(Cl)nc1)C(=NC)C(=Cc1ccc[nH]1)[N+](=O)[O-] [Compound 188]
Aphis craccivoral Mortality (%) 500 ppm [1]: 100% | Nilaparvata lugens Mortality (%) 500 ppm [2]: 100%

CN=C(C(=Cc1ccc([N+](=O)[O-])s1)[N+](=O)[O-])N(C)Cc1ccc(Cl)nc1 [Compound 238]
Aphis craccivoral Mortality (%) 500 ppm [1]: 91% | Nilaparvata lugens Mortality (%) 500 ppm [2]: 98%

CCN(Cc1ccc(Cl)nc1)C(=NC)C(=C(C)c1ccc(Cl)s1)[N+](=O)[O-] [Compound 203]
Aphis craccivoral Mortality (%) 500 ppm [1]: 100% | Nilaparvata lugens Mortality (%) 500 ppm [2]: 100%

CCN(Cc1ccc(Cl)nc1)C(=NC)C(=C(C)c1ccco1)[N+](=O)[O-] [Compound 195]
Aphis craccivoral Mortality (%) 500 ppm [1]: 100%
